Assay results as given in patent publication US20050113367A1, “Pharmaceutical composition” (SANKYO COMPANY, LIMITED, priority 2000, published 2005).

Test system: spontaneously hypertensive rats (SHRs)
Assay: Hypotensive effects elicited by co-administration of CS-866 and hydrochlorothiazide (telemetry blood pressure in SHRs)
Format: in vivo, rat
Settings: male SHRs, in mmHg (unit assumed)
Description: Hypotensive Effects Elicited by Co-Administration of CS-866 and Hydrochlorothiazide
Twenty-eight male spontaneously hypertensive rats aged 20 weeks (SHRs, SPF grade, purchased from Hoshino Laboratory Animals) were used. A transmitter of a telemeter (TA11PA-C40, DATA SCIENCES Inc.) was implanted in each SHR for recording blood pressure. After recovery from the surgical operations, blood pressure was monitored in the rats from the age of 24 weeks. The rats were orally given 0.5% carboxymethylceflulose solution (CMC, 2 ml/kg) for 7 successive days (once daily) by gavage. They were divided into 4 groups (7 SHRs per group) so as to give equally averaged blood pressure levels in the groups based on the blood pressure recorded on the 5th and 6th days after the CMC solution was initiated. The rats were orally treated with 0.5% CMC solution (2 ml/kg, control group) or test substance suspended in 0.5% CMC solution (2 ml/kg) for 14 successive days (once daily). Blood pressure was monitored 1 day prior to the drug administration and on the 7th and 14th days after the drug was initiated. The group composition, test substances, doses and blood pressure (the 24 hour mean blood pressure A standard error on the respective monitoring days) are summarized in Tables 1 and 2.
The test substances were hydrochlorothiazide (HCTZ), CS-866, and HCTZ and CS-866. HCTZ was prepared so as to be 10 mg/2 ml of final concentration with 0.5% CMC solution. CS-866 was suspended in 0.5% CMC solution so as to be at a final concentration of 1 mg/2 ml. CS-866 and HCTZ solution was prepared so as to be at a final concentration of [10 mg (HCTZ)+1 mg (CS-866)]/2 ml with 0.5% CMC solution.

[1] = 7th day after administration, oral once daily, HCTZ 10 mg/kg, CS-866 1 mg/kg, or both
[2] = 14th day after administration, oral once daily, HCTZ 10 mg/kg, CS-866 1 mg/kg, or both
[3] = 1 day before administration (baseline), oral, once daily, n=7 per group

| SMILES | Blood pressure levels (24 hour mean blood pressure ± standard error) [1] | Blood pressure levels (24 hour mean blood pressure ± standard error) [2] | Blood pressure levels (24 hour mean blood pressure ± standard error) [3] |
| --- | --- | --- | --- |
| CCCc1nc(C(C)(C)O)c(C(=O)OCc2oc(=O)oc2C)n1Cc1ccc(-c2ccccc2-c2nnn[nH]2)cc1 [CS-866, (5-methyl-2-oxo-1,3-dioxolen-4-yl)methyl 4-(1-hydroxy-1-methylethyl)-2-propyl-1-[2′-(1H-tetrazol-5-yl)biphenyl-4-ylmethyl]imidazol-5-carboxylate] | 147 ± 4 | 148 ± 4 | 167 ± 6 |
| NS(=O)(=O)c1cc2c(cc1Cl)NCNS2(=O)=O [HCTZ, 6-chloro-3,4-dihydro-2H-1,2,4,-benzothiadiazin-7-sulfonamide 1,1-dioxide] | 152 ± 6 | 156 ± 6 | 165 ± 6 |
